Assay results as given in US7398119B2, “Assessing blood brain barrier dynamics or identifying or measuring selected substances, including ethanol or toxins, in a subject by analyzing Raman spectrum signals” (Childrens Hospital Los Angeles, priority 1998, dated 2008).

Tests used:
[1] = blood alcohol and brain alcohol levels; cited from earlier work
[2] = Correlation of aqueous humor glucose with rising blood glucose after ketamine/xylazine anesthesia; assay type: in vivo, New Zealand white rabbits; details: xylazine 7.5 mg/kg with ketamine 50 mg/kg, single intramuscular injection
Procedure: Nine female New Zealand white rabbits were used for this part of the study. They were anesthetized with ketamine (50 mg/kg) and xylazine (7.5 mg/kg) given as a single intramuscular injection. Xylazine blocks release of insulin from the pancreas and causes blood glucose to rise (K. Chalabi et al., Ophthalmic Res. 19, 289 (1987); J. Arnbjerg et al., Ophthalmic Res. 22, 265 (1990)).
Blood samples were taken from the central ear arteries at various times following the injection of anesthetic once the animals were adequately anesthetized. Whole blood was immediately measured for glucose concentration with a commercial glucometer (Glucometer Elite, Bayer). In most instances two measurements were made. The average measurements are reported. If the measurements differed by more than 20%, a third measurement was made. […]
At various times after induction of anesthesia, samples of aqueous humor were taken. […] Aqueous humor glucose concentration was measured with the glucometer in a manner similar to the blood. […]
Average blood glucose concentrations for each animal were plotted against time after anesthetic injection. Since it was not possible to obtain blood samples simultaneous with aqueous humor samples, a best-fit second-order polynomial was calculated for each animal. […] Aqueous humor glucose concentration was then plotted against the calculated simultaneous blood glucose concentration for all animals. […]

Row | SMILES | concentrations that may be lethal [1] | effect on blood glucose over time [2]
1 | CCO [alcohol, ethanol] | above 1% | 
2 | Cc1cccc(C)c1N=C1NCCCS1 [xylazine] |  | steadily rises at variable rates
